Reference: PubChem BioAssay (NCI)
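Cells were grown in 96-well plates and exposed to each compound for 48 hours at five concentrations; endpoints were interpolated linearly between bracketing concentrations, or set to the highest concentration if not reached. GI50: concentration for 50% inhibition of growth. Definition used: TGI = concentration required for complete inhibition of growth.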

Experiments:
Assay in all cases: NCI tumour cell line growth inhibition, 48 h
786-0 renal = system: 786-0 renal
A498 renal = system: A498 renal
A549 NSCLC = system: A549 NSCLC
ACHN renal = system: ACHN renal
BT-549 breast = system: BT-549 breast
CAKI-1 renal = system: CAKI-1 renal
CCRF-CEM leukemia = system: CCRF-CEM leukemia
COLO 205 colon = system: COLO 205 colon
DU-145 prostate = system: DU-145 prostate
EKVX NSCLC = system: EKVX NSCLC
HCC-2998 colon = system: HCC-2998 colon
HCT-116 colon = system: HCT-116 colon
HCT-15 colon = system: HCT-15 colon
HL-60(TB) leukemia = system: HL-60(TB) leukemia
HOP-62 NSCLC = system: HOP-62 NSCLC
HOP-92 NSCLC = system: HOP-92 NSCLC
HS 578T breast = system: HS 578T breast
HT29 colon = system: HT29 colon
IGROV1 ovarian = system: IGROV1 ovarian
K-562 leukemia = system: K-562 leukemia
KM12 colon = system: KM12 colon
LOX IMVI melanoma = system: LOX IMVI melanoma
M14 melanoma = system: M14 melanoma
MALME-3M melanoma = system: MALME-3M melanoma
MCF7 breast = system: MCF7 breast
MDA-MB-231 breast = system: MDA-MB-231 breast
MDA-MB-435 = system: MDA-MB-435
MDA-MB-468 breast = system: MDA-MB-468 breast
MOLT-4 leukemia = system: MOLT-4 leukemia
NCI-H226 lung = system: NCI-H226 lung
NCI-H23 lung = system: NCI-H23 lung
NCI-H460 lung = system: NCI-H460 lung
NCI-H522 lung = system: NCI-H522 lung
NCI/ADR-RES ovarian = system: NCI/ADR-RES ovarian
OVCAR-3 ovarian = system: OVCAR-3 ovarian
OVCAR-4 ovarian = system: OVCAR-4 ovarian
OVCAR-5 ovarian = system: OVCAR-5 ovarian
OVCAR-8 ovarian = system: OVCAR-8 ovarian
PC-3 prostate = system: PC-3 prostate
RPMI-8226 leukemia = system: RPMI-8226 leukemia
RXF 393 renal = system: RXF 393 renal
SF-268 CNS = system: SF-268 CNS
SF-295 CNS = system: SF-295 CNS
SF-539 CNS = system: SF-539 CNS
SK-MEL-2 melanoma = system: SK-MEL-2 melanoma
SK-MEL-28 melanoma = system: SK-MEL-28 melanoma
SK-MEL-5 melanoma = system: SK-MEL-5 melanoma
SK-OV-3 ovarian = system: SK-OV-3 ovarian
SN12C renal = system: SN12C renal
SNB-19 CNS = system: SNB-19 CNS
SR leukemia = system: SR leukemia
SW-620 colon = system: SW-620 colon
T-47D breast = system: T-47D breast
TK-10 renal = system: TK-10 renal
U251 CNS = system: U251 CNS
UACC-257 melanoma = system: UACC-257 melanoma
UACC-62 melanoma = system: UACC-62 melanoma
UO-31 renal = system: UO-31 renal

## COc1ccc2c3nc4cc(C)c(C)cc4nc3n(CCN(C)C)c2c1
786-0 renal
  GI50: 2.73 µM
  TGI: 10.5 µM
A498 renal
  GI50: 11 µM
  TGI: 25.6 µM
A549 NSCLC
  GI50: 1.34 µM
  TGI: 3.34 µM
ACHN renal
  GI50: 1.38 µM
  TGI: 4.19 µM
BT-549 breast
  GI50: 2.94 µM
  TGI: 16.4 µM
CAKI-1 renal
  GI50: 0.981 µM
  TGI: 6.65 µM
CCRF-CEM leukemia
  GI50: 3.47 µM
  TGI: 13.5 µM
COLO 205 colon
  GI50: 5.93 µM
  TGI: 20.8 µM
DU-145 prostate
  GI50: 2.74 µM
  TGI: 12 µM
EKVX NSCLC
  GI50: 3.34 µM
  TGI: 15.5 µM
HCC-2998 colon
  GI50: 1.31 µM
  TGI: 3.44 µM
HCT-116 colon
  GI50: 1.27 µM
  TGI: 2.74 µM
HCT-15 colon
  GI50: 1.31 µM
  TGI: 3.54 µM
HL-60(TB) leukemia
  GI50: 1.18 µM
  TGI: 2.95 µM
HOP-62 NSCLC
  GI50: 2.53 µM
  TGI: 13 µM
HOP-92 NSCLC
  GI50: 0.452 µM
  TGI: 6.02 µM
HS 578T breast
  GI50: 7.19 µM
  TGI: 32.5 µM
HT29 colon
  GI50: 3.02 µM
  TGI: 12.6 µM
IGROV1 ovarian
  GI50: 1.46 µM
  TGI: 13.3 µM
K-562 leukemia
  GI50: 1.44 µM
  TGI: 4.89 µM
KM12 colon
  GI50: 2.31 µM
  TGI: 11.4 µM
LOX IMVI melanoma
  GI50: 1.09 µM
  TGI: 2.28 µM
M14 melanoma
  GI50: 1.32 µM
  TGI: 2.95 µM
MALME-3M melanoma
  GI50: 1.45 µM
  TGI: 3.28 µM
MCF7 breast
  GI50: 1.02 µM
  TGI: 2.95 µM
MDA-MB-231 breast
  GI50: 1.79 µM
  TGI: 9.32 µM
MDA-MB-435
  GI50: 2.5 µM
  TGI: 11 µM
MDA-MB-468 breast
  GI50: 1.17 µM
  TGI: 3.18 µM
MOLT-4 leukemia
  GI50: 2.2 µM
  TGI: 7.29 µM
NCI-H226 lung
  GI50: 1.58 µM
  TGI: 3.81 µM
NCI-H23 lung
  GI50: 2.51 µM
  TGI: 11.5 µM
NCI-H460 lung
  GI50: 1.21 µM
  TGI: 3.2 µM
NCI-H522 lung
  GI50: 0.665 µM
  TGI: 7.87 µM
NCI/ADR-RES ovarian
  GI50: 2.28 µM
  TGI: 12 µM
OVCAR-3 ovarian
  GI50: 2.24 µM
  TGI: 5.23 µM
OVCAR-4 ovarian
  GI50: 2.82 µM
  TGI: 16.2 µM
OVCAR-5 ovarian
  GI50: 2.96 µM
  TGI: 12.6 µM
OVCAR-8 ovarian
  GI50: 1.43 µM
  TGI: 3.47 µM
PC-3 prostate
  GI50: 1.58 µM
  TGI: 12.9 µM
RPMI-8226 leukemia
  GI50: 1.81 µM
  TGI: 4.85 µM
RXF 393 renal
  GI50: 2.38 µM
  TGI: 9.71 µM
SF-268 CNS
  GI50: 3.41 µM
  TGI: 16.2 µM
SF-295 CNS
  GI50: 1.65 µM
  TGI: 5.55 µM
SF-539 CNS
  GI50: 1.49 µM
  TGI: 2.98 µM
SK-MEL-2 melanoma
  GI50: 3.88 µM
  TGI: 15.8 µM
SK-MEL-28 melanoma
  GI50: 3.23 µM
  TGI: 11.9 µM
SK-MEL-5 melanoma
  GI50: 1.5 µM
  TGI: 2.98 µM
SK-OV-3 ovarian
  GI50: 3.58 µM
  TGI: 16.2 µM
SN12C renal
  GI50: 1.54 µM
  TGI: 5.96 µM
SNB-19 CNS
  GI50: 3.42 µM
  TGI: 16.3 µM
SR leukemia
  GI50: 1.32 µM
  TGI: 5.33 µM
SW-620 colon
  GI50: 1.27 µM
  TGI: 8.47 µM
T-47D breast
  GI50: 1.78 µM
  TGI: 13.6 µM
TK-10 renal
  GI50: 6.87 µM
  TGI: 19 µM
U251 CNS
  GI50: 1.39 µM
  TGI: 3.89 µM
UACC-257 melanoma
  GI50: 3.97 µM
  TGI: 15.1 µM
UACC-62 melanoma
  GI50: 1.61 µM
  TGI: 5.2 µM
UO-31 renal
  GI50: 0.542 µM
  TGI: 7.76 µM

## O=C(Nc1ccc(I)cc1)Nc1nc2ccc([N+](=O)[O-])cc2s1
786-0 renal
  GI50: 3.5 µM
  TGI: 13.4 µM
A498 renal
  GI50: 2.83 µM
  TGI: 9.14 µM
A549 NSCLC
  GI50: 3.54 µM
  TGI: 13.5 µM
ACHN renal
  GI50: 3.25 µM
  TGI: 10.4 µM
BT-549 breast
  GI50: 2.31 µM
  TGI: 7.29 µM
CAKI-1 renal
  GI50: 3.32 µM
  TGI: 12.1 µM
CCRF-CEM leukemia
  GI50: 3.4 µM
  TGI: 10.8 µM
COLO 205 colon
  GI50: 2.64 µM
  TGI: 6.52 µM
DU-145 prostate
  GI50: 3.99 µM
  TGI: 14 µM
EKVX NSCLC
  GI50: 3.08 µM
  TGI: 10.9 µM
HCC-2998 colon
  GI50: 3.59 µM
  TGI: 12.3 µM
HCT-116 colon
  GI50: 2.66 µM
  TGI: 11 µM
HCT-15 colon
  GI50: 3.2 µM
  TGI: 11.2 µM
HL-60(TB) leukemia
  GI50: 2.41 µM
  TGI: 6.05 µM
HOP-62 NSCLC
  GI50: 3.44 µM
  TGI: 12.5 µM
HOP-92 NSCLC
  GI50: 2.03 µM
  TGI: 6.28 µM
HS 578T breast
  GI50: 3.01 µM
  TGI: 9.9 µM
HT29 colon
  GI50: 3.32 µM
  TGI: 13.4 µM
IGROV1 ovarian
  GI50: 3.67 µM
  TGI: 14 µM
K-562 leukemia
  GI50: 3.23 µM
  TGI: 10.9 µM
KM12 colon
  GI50: 3.36 µM
  TGI: 11.6 µM
LOX IMVI melanoma
  GI50: 3.49 µM
  TGI: 11.7 µM
M14 melanoma
  GI50: 3.62 µM
  TGI: 13.2 µM
MALME-3M melanoma
  GI50: 2.41 µM
  TGI: 6.89 µM
MCF7 breast
  GI50: 2.59 µM
  TGI: 7.79 µM
MDA-MB-435
  GI50: 3.47 µM
  TGI: 12.5 µM
MDA-MB-468 breast
  GI50: 2.83 µM
  TGI: 7.4 µM
MOLT-4 leukemia
  GI50: 2.57 µM
  TGI: 7.12 µM
NCI-H226 lung
  GI50: 3.45 µM
  TGI: 13 µM
NCI-H23 lung
  GI50: 2.23 µM
  TGI: 5.85 µM
NCI-H460 lung
  GI50: 3.21 µM
  TGI: 10.4 µM
NCI-H522 lung
  GI50: 2.29 µM
  TGI: 6.75 µM
NCI/ADR-RES ovarian
  GI50: 2.92 µM
  TGI: 9.27 µM
OVCAR-3 ovarian
  GI50: 3.48 µM
  TGI: 12.6 µM
OVCAR-4 ovarian
  GI50: 3.69 µM
  TGI: 14.5 µM
OVCAR-5 ovarian
  GI50: 4.11 µM
  TGI: 15.9 µM
OVCAR-8 ovarian
  GI50: 3.48 µM
  TGI: 11.8 µM
PC-3 prostate
  GI50: 3.16 µM
  TGI: 11.4 µM
RPMI-8226 leukemia
  GI50: 2.07 µM
  TGI: 5.23 µM
RXF 393 renal
  GI50: 3.53 µM
  TGI: 12.9 µM
SF-268 CNS
  GI50: 3.63 µM
  TGI: 14.6 µM
SF-295 CNS
  GI50: 2.93 µM
  TGI: 10.6 µM
SF-539 CNS
  GI50: 3.01 µM
  TGI: 9.39 µM
SK-MEL-28 melanoma
  GI50: 3.19 µM
  TGI: 10.7 µM
SK-MEL-5 melanoma
  GI50: 1.93 µM
  TGI: 3.9 µM
SK-OV-3 ovarian
  GI50: 2.93 µM
  TGI: 9.16 µM
SN12C renal
  GI50: 2.86 µM
  TGI: 9.42 µM
SNB-19 CNS
  GI50: 3.44 µM
  TGI: 12.9 µM
SR leukemia
  GI50: 2.24 µM
  TGI: 5.84 µM
SW-620 colon
  GI50: 3.56 µM
  TGI: 13.1 µM
T-47D breast
  GI50: 2.8 µM
  TGI: 8.71 µM
TK-10 renal
  GI50: 3.67 µM
  TGI: 11.7 µM
U251 CNS
  GI50: 3.23 µM
  TGI: 10.7 µM
UACC-257 melanoma
  GI50: 2.83 µM
  TGI: 8.24 µM
UACC-62 melanoma
  GI50: 2.99 µM
  TGI: 10.3 µM
